In ChEMBL document CHEMBL1135043, “A neural network based virtual screening of cytochrome P450 3A4 inhibitors” (Bioorg Med Chem Lett, 2002):

Molecular target: Cytochrome P450 3A4 (Homo sapiens, UniProt P08684)
Experiment: Inhibition of cytochrome P450 3A4

Cytochrome P450 3A4, sequence (P08684 whole entry): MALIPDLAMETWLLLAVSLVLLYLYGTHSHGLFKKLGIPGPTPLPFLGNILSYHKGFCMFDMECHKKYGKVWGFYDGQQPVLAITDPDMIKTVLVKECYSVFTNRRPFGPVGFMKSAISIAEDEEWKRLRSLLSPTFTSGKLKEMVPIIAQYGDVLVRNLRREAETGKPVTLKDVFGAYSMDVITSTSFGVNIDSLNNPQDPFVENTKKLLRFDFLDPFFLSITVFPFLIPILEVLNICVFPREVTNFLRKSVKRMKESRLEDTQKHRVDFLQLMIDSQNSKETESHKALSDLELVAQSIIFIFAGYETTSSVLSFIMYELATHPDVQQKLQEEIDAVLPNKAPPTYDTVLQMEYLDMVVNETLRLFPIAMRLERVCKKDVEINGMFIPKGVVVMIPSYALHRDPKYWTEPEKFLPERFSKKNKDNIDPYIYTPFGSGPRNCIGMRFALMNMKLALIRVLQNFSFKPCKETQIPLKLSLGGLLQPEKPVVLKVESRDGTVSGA

SMILES | Inhibitory index
CN1CCC(c2c[nH]c3ccc(NC(=O)c4ccc(F)cc4)cc23)CC1 | 0.8
OC(COc1cccc2ncccc12)CN1CCN(C2c3ccccc3C3CC3c3ccccc32)CC1 (configuration not stated) | 0.88
COCCCOc1ccnc(C[S+]([O-])c2nc3ccccc3[nH]2)c1C (configuration not stated) [RABEPRAZOLE] | 0.82
CC(C)(C)c1cc(CC2SCNC2=O)cc(C(C)(C)C)c1O (configuration not stated) [TAZOFELONE] | 0.39
CN1[C@@H]2CC[C@H]1C[C@@H](NC(=O)c1cc(Cl)cc3c1OC(C)(C)C3)C2 [ZATOSETRON] | 0.8

Other lines, results leading:

Inhibitory index | SMILES
0.86 | COc1ccccc1CN(CC(Cc1c[nH]c2ccccc12)NC(=O)CN1CCC(N2CCCCC2)CC1)C(C)=O (configuration not stated)
0.88 | O[C@@H](COc1cccc2ncccc12)CN1CCN([C@@H]2c3ccccc3[C@@H]3[C@H](c4ccccc42)C3(F)F)CC1
